Each structure is given as a SMILES string.

The values that follow come from patent US20210299076A1, “AMINO ACID FORMULATIONS AND USES THEREOF” (University of Florida Research Foundation, Incorporated, priority 2012, published 2021).

The subject of experiment [1] is intracellular cAMP in ileal epithelial cells. Description: Colorimetric intracellular cAMP measurement in ileal villus and crypt cells. The conditions noted are these: villus cells. Format: cell-based, mouse. How it is done: Freshly isolated mucosal scrapings of ileal epithelial cells are washed three times in Ringer's solution containing 1.2 mM Ca^2+ at 37° C. […] Cells are treated with 0.1 M HCl to stop endogenous phosphodiesterase activity. The lysates are then used for cAMP assay using cAMP direct immunoassay kit (Calbiochem, USA). The quantitative assay of cAMP uses a polyclonal antibody to cAMP that binds to cAMP in samples in a competitive manner. After a simultaneous incubation at room temperature, the excess reagents are washed away and substrates are added. After a short incubation time, the reaction is stopped and the yellow color generated is read at 405 nm. The intensity of the color is inversely proportional to the concentration of cAMP in standards and samples. cAMP levels are standardized to protein levels from respective fractions and expressed in pmol (mg protein)^−1. Forskolin treated cells are used as a positive control. Glucose and forskolin treated cells are incubated for 45 minutes. All the assays are performed in triplicate and repeated until n=4 different mice.

In the next experiment the target is T1, SGLT1 (Mus musculus, UniProt Q8C3K6).
T1 construct: from tissue; host or cells: ileal mucosa of NIH Swiss mice
T1 sequence (Q8C3K6 1-665): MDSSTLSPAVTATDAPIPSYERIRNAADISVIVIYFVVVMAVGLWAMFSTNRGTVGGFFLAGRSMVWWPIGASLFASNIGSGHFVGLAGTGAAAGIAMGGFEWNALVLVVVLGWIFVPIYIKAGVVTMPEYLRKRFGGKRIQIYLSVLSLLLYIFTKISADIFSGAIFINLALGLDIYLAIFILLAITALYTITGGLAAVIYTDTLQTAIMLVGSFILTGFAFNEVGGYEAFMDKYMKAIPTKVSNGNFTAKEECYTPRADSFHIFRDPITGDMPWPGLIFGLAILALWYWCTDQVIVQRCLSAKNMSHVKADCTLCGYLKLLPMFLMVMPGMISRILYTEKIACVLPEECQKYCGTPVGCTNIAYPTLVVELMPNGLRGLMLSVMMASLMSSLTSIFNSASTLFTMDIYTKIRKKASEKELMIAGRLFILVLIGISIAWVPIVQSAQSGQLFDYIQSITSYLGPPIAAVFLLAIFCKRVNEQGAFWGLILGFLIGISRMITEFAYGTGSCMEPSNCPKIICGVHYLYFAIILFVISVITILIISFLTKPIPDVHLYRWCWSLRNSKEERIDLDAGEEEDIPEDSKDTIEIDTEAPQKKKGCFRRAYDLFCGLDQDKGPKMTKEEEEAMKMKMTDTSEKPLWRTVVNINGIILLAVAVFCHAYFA
Description: Saturation kinetics of Na+-coupled glucose / 3-OMG transport (Isc, Ussing chamber, ileal sheets). Format: cell-based. The text has this: Normally fed, 8-week-old, male NIH Swiss mice are sacrificed by CO2 inhalation, followed by cervical dislocation. The small intestine is gently removed, and the segment is washed and flushed in ice-cold Ringer's solution. Then the mucosa is separated from the serosa and the muscular layers by striping through the submucosal plane as previously described (Zhang et al. (2007) J Physiol 581(3):1221-1233). Following exsanguinations, ileal mucosa is obtained from a 10 cm segment close to the caecum. All experiments are approved by the University of Florida Institutional Animal Care and Use Committee.
Ion transport studies are performed on ileal sheets. Tissues are then mounted in between the two halves of an Ussing type-Lucite chamber with 0.3 cm^−2 exposed surface areas (P2304, Physiologic Instruments, San Diego, Calif., USA). […] The basal short-circuit current (Isc) and the corresponding conductance (G) are recorded using a computer controlled voltage/current clamp device (VCC MC-8, Physiologic Instruments).
Tissues paired with similar conductance and current are treated with or without 100 μM H-89 (Santa Cruz Biotechnology, Inc, Santa Cruz, Calif.), an irreversible protein kinase A (PKA) inhibitor. […] Saturation kinetic constant is calculated for the corresponding Km and Vmax for treated and untreated tissues. […]

Consider `CO[C@@H]([C@H](O)[C@H](O)CO)[C@@H](O)C=O` [Formulation 3-OMG, 3-O-methylglucose], for which the “Intracellular cAMP level compared to 6 mM glucose” value in experiment [1] (3-OMG 6 mM, P<0.01) is listed as “significantly higher”. Besides, the “Intracellular cAMP level” value in experiment [1] (3-OMG 0.6 and 6 mM, 45 minutes) was “significant increase”. The Vmax at SGLT1 (Table 1, no PKA inhibitor, n = 8 tissues) stood at 2.7 ± 0.1; on SGLT1 (Table 1, with H-89, n = 8 tissues) it was 1.4 ± 0.1.
